In US10464927B2, “2,4-disubstituted pyrimidines as CDK inhibitors” (Shanghai Xunhe Pharmaceutical Technology Co. Ltd., priority 2016, dated 2019) one finds IC50 data, which are given here for three compounds.

In test [1] the target is CDK6 (Homo sapiens (Human), UniProt Q00534). The test is described as follows: CDK6 protein kinase activity, Caliper mobility shift assay. As to conditions: GST-CDK6(1-326 end), substrate Peptide FAM-P8, 28° C. for 3 h. It counts as biochemical. The essentials: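 GST-CDK6(1-326) was preincubated with compound for 10 min at room temperature in 20 mM HEPES pH 7.5, 10 mM MgCl2, 2 mM DTT and 0.01% Triton X-100. FAM-P8 peptide was then added and the reaction ran 3 h at 28 °C. Peptide conversion was read by mobility shift and expressed as % inhibition relative to max/min controls.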
CDK6, sequence (Q00534 whole entry): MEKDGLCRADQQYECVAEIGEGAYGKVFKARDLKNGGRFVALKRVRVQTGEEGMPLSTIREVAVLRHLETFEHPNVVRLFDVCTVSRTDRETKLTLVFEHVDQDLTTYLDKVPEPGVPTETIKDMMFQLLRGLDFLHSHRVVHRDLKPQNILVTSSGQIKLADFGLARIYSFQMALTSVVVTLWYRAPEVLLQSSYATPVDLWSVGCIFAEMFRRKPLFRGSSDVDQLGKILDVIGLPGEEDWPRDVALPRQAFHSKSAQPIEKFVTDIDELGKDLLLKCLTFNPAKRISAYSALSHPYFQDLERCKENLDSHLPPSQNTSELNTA
CDK6, sequence (P30281 whole entry partner): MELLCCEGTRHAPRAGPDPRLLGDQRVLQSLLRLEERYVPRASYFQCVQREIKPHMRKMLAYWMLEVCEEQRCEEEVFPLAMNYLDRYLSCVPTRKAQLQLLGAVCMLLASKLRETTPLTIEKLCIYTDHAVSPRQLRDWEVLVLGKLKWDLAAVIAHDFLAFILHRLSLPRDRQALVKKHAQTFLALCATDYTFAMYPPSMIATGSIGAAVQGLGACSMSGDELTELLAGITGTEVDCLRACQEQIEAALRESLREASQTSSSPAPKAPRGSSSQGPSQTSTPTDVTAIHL

The target of test [2] is CDK4 (Homo sapiens (Human), UniProt P11802). Description: CDK4 protein kinase activity, Caliper mobility shift assay. The note with it: GST-CDK4(1-303 end), substrate Peptide FAM-P8, 28° C. for 3 h. It is filed as biochemical. The essentials: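 GST-CDK4(1-303) preincubated 10 min at room temperature with compound in HEPES pH 7.5 buffer with MgCl2, DTT and Triton X-100, then FAM-P8 peptide added and reacted 3 h at 28 °C. Substrate conversion read by mobility shift; inhibition % = (max−conversion)/(max−min)×100.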
CDK4, sequence (P11802 whole entry): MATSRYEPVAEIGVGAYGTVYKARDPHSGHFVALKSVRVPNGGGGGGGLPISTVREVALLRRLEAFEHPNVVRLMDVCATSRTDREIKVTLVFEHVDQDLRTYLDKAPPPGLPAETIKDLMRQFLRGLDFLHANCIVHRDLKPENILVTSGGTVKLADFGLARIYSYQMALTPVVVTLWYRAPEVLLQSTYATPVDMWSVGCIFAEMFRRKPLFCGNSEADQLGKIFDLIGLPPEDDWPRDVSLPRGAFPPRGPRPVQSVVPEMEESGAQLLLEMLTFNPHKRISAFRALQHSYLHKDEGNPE
CDK4, sequence (P30281 whole entry partner): as the sequence (P30281 whole entry partner) above

The term IC50 denotes the concentration that inhibits the measured activity by half. For the compound `CC(C)n1c(C(=O)N(C)C)cc2c(F)c(-c3nc(Nc4ccc(N5CCNCC5)cn4)ncc3F)ccc21` [Compound I-28, N-(5-(piperazin-1-yl)-pyridin-2-yl)-5-fluoro-4-(1-isopropyl-2-formic acid diformamido-1H-4-fluoroindol-5-yl)pyrimidin-2-amine], the values for the half-inhibitory concentration (IC50) in test [1] and in test [2] were 20 to 100 nM and at most 20 nM, respectively.

As to `CC(C)n1c(C2CCCC2)cc2cc(-c3nc(Nc4ccc(N5CCN(C6CCC6)CC5)cn4)ncc3F)ccc21` [Compound I-21, N-(5-(4-cyclobutylpiperazin-1-yl)-pyridin-2-yl)-5-fluoro-4-(1-isopropyl-2-cyclopentyl-1H-indol-5-yl)pyrimidin-2-amine], the figures for the IC50 in test [1] and in test [2] were 20 to 100 nM and at most 20 nM, respectively.

Consider `CCC(CC)n1c(C(C)C)nc2cnc(-c3nc(Nc4ccc(CN5CCN(C)CC5)cn4)ncc3F)nc21` [Compound I-39, N-(5-(4-methylpiperazin-1-methyl)-pyridin-2-yl)-5-fluoro-4-(9-(3-pentyl)-8-isopropyl-9H-purin-2-yl)pyrimidin-2-amine], for which the half-maximal inhibitory concentration (IC50) in test [1] and in test [2] was at most 20 nM throughout.
